Tests used:
[1] = biological target: T1, PARP1 (recombinant) (Homo sapiens, UniProt P09874); test: fluorescence polarization competition binding
T1 construct: recombinant

[2] = biological target: T2, PARP2 (recombinant) (Homo sapiens, UniProt Q9UGN5); test: fluorescence polarization competition binding
T2 construct: recombinant

[3] = biological target: T3, GST-tagged PARP6 (recombinant) (Homo sapiens, UniProt Q2NL67); test: fluorescence polarization competition binding
T3 construct: recombinant GST fusion with HRV3C site in the linker, 98 kDa; intact PARP6 71 kDa after cleavage
T3 sequence (Q2NL67 whole entry, the tested form may be a part): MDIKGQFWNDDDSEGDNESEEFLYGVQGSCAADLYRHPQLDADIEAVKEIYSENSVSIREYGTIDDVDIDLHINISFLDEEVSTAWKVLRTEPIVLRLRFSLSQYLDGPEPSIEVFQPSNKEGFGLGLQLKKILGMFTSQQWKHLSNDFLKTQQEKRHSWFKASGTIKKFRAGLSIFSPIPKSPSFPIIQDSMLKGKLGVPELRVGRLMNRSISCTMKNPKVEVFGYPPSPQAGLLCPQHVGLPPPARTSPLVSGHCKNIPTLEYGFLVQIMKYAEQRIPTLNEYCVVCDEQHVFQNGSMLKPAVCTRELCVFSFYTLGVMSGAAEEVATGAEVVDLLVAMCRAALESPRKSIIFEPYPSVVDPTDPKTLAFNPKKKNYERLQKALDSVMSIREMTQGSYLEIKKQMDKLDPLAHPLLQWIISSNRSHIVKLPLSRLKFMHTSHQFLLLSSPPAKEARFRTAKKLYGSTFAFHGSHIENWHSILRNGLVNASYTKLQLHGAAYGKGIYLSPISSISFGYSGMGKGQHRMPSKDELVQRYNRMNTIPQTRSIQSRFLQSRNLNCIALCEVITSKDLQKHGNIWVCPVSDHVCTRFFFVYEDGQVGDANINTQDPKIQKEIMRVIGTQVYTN
From the text: fluorescence polarization competition binding on GST-tagged PARP6 (recombinant) | IC50 of PARPYnD for PARP6 as determined by the in vitro binding assay

[4] = biological target: T3, GST-tagged PARP6 (recombinant); test: competition of PARPYnD photoaffinity labeling, in-gel fluorescence and immunoblot; assay type: biochemical; conditions: recombinant GST-PARP6 spiked into MDA-MB-468 lysate; […] nm UV

T1 sequence (P09874 2-1014): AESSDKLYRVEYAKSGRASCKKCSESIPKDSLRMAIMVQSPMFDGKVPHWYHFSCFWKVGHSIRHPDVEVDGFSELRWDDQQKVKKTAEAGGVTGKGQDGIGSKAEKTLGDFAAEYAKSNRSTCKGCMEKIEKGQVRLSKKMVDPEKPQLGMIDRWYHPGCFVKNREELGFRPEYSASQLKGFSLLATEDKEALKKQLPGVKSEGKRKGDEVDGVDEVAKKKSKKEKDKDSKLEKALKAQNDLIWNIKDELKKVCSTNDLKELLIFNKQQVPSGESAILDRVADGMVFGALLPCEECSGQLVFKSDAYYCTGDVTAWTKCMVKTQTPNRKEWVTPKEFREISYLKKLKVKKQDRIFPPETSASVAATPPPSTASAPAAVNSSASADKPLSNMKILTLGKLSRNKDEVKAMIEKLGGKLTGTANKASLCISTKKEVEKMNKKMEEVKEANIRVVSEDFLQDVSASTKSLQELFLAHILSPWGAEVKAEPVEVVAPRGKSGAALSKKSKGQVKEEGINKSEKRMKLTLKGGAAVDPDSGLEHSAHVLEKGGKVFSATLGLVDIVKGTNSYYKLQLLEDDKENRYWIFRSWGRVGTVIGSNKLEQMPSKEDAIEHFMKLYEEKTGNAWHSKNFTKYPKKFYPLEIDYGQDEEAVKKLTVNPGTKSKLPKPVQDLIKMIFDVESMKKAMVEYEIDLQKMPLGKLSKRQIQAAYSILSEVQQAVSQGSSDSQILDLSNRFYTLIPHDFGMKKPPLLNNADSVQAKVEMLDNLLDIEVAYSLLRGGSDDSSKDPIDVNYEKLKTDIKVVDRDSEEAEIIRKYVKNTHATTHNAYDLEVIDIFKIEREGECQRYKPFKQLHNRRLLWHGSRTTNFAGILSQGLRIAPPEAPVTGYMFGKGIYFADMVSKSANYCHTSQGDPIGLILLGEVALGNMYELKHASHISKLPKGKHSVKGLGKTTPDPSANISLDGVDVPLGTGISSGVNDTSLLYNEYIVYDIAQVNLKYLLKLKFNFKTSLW
T2 sequence (Q9UGN5 whole entry): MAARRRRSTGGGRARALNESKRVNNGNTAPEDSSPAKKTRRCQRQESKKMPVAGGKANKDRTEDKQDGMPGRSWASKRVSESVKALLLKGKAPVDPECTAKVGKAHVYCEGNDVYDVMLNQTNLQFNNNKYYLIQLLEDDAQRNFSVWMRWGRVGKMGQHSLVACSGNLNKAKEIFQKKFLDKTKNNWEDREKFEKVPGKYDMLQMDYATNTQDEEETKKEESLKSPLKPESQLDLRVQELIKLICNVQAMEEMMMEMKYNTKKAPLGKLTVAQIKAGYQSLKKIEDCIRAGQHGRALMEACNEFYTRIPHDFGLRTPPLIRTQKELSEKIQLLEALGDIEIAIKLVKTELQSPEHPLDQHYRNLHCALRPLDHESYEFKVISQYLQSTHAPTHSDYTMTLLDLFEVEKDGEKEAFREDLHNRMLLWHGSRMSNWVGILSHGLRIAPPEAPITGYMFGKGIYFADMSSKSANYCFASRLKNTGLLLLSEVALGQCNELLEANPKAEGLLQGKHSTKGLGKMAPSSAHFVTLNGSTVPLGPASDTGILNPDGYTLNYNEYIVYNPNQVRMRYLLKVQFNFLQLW

Row | SMILES | IC50 [1] [nM] | IC50 [2] [nM] | IC50 [3] [nM] | competition of PARPYnD photoaffinity labeling, in-gel fluorescence and immunoblo [4]
1 | C#CCCC1(CCC(=O)Nc2cnc(N3CCN(C(=O)c4cccc(Cc5n[nH]c(=O)c6ccccc56)c4)CC3)c(C#N)c2)N=N1 [PARPYnD] | 38 | 6 | 230 | 
2 | C[C@H]1Cn2c(nnc2C(C)(F)F)CN1C(=O)c1cccc(C(F)(F)c2n[nH]c(=O)c3ccccc23)c1 [AZ0108] |  |  |  | which was depleted by PARP6 inhibitor AZ0108

Reference: article PMC7146755, “Structure-Guided Design and In-Cell Target Profiling of a Cell-Active Target Engagement Probe for PARP Inhibitors” (ACS Chemical Biology, 2020)
